# From PMC5218480 (PLoS ONE, 2017)
# System: MV-4-11 cells
# Experiment: Gene expression microarray analysis (Affymetrix PrimeView) and GSEA
# Assay type: cell-based, human
# Design: RFU PODN (11730768_x_at) / Fold change /veh PODN (11730768_x_at) / RFU LINC00158 (11744669_a_at) / Fold change /veh LINC00158 (11744669_a_at) / RFU DUSP10 (11751237_a_at) / Fold change /veh DUSP10 (11751237_a_at) / RFU ID3 (11757404_x_at) / Fold change /veh ID3 (11757404_x_at) / RFU PLEKHG5 (11737974_s_at) / Fold change /veh PLEKHG5 (11737974_s_at) / RFU LRRC4B (11730491_at) / Fold change /veh LRRC4B (11730491_at) / RFU GIMAP4 (11747438_a_at) / Fold change /veh GIMAP4 (11747438_a_at) / RFU KRT8 (11758183_x_at) / Fold change /veh KRT8 (11758183_x_at) / RFU CNN1 (11734310_a_at) / Fold change /veh CNN1 (11734310_a_at) / RFU VPS37D (11726825_at) / Fold change /veh VPS37D (11726825_at) / RFU C10orf10 (11716522_x_at) / Fold change /veh C10orf10 (11716522_x_at) / RFU KIR2DL2 /// KIR2DL4 /// KIR2DL5A /// KIR2DL5B /// KIR2DS1 /// KIR2DS2 /// KIR2DS3 /// KIR2DS4 /// KIR3DL3 /// KIR3DL3 /// KIR3DS1 (11738374_at) / Fold change /veh KIR2DL2 /// KIR2DL4 /// KIR2DL5A /// KIR2DL5B /// KIR2DS1 /// KIR2DS2 /// KIR2DS3 /// KIR2DS4 /// KIR3DL3 /// KIR3DL3 /// KIR3DS1 (11738374_at) / RFU C1QL1 (11718748_at) / Fold change /veh C1QL1 (11718748_at) / RFU TMPRSS4 (11747572_a_at) / Fold change /veh TMPRSS4 (11747572_a_at) / RFU HAMP (11756126_x_at) / Fold change /veh HAMP (11756126_x_at) / RFU RNFT2 (11725882_a_at) / Fold change /veh RNFT2 (11725882_a_at) / RFU NR4A2 (11747474_a_at) / Fold change /veh NR4A2 (11747474_a_at) / RFU ABCC12 (11746883_a_at) / Fold change /veh ABCC12 (11746883_a_at) / RFU TMEM136 (11760407_x_at) / Fold change /veh TMEM136 (11760407_x_at) / RFU CLDN22 /// WWC2 (11732394_at) / Fold change /veh CLDN22 /// WWC2 (11732394_at) / RFU HLA-DPB1 (11760878_x_at) / Fold change /veh HLA-DPB1 (11760878_x_at) / RFU SPINT1 (11716480_a_at) / Fold change /veh SPINT1 (11716480_a_at) / RFU GAP43 (11754022_s_at) / Fold change /veh GAP43 (11754022_s_at) / RFU A4GNT (11735810_at) / Fold change /veh A4GNT (11735810_at) / RFU PRB3 (11715151_x_at) / Fold change /veh PRB3 (11715151_x_at) / RFU TUBB4B (11761932_at) / Fold change /veh TUBB4B (11761932_at) / RFU CAPN14 (11732068_a_at) / Fold change /veh CAPN14 (11732068_a_at) / RFU TMCC2 (11721928_a_at) / Fold change /veh TMCC2 (11721928_a_at) / RFU IRGQ (11745062_a_at) / Fold change /veh IRGQ (11745062_a_at) / RFU FAM174B (11720279_a_at) / Fold change /veh FAM174B (11720279_a_at) / RFU TMPRSS4 (11748680_a_at) / Fold change /veh TMPRSS4 (11748680_a_at) / RFU FAM212B (11763350_a_at) / Fold change /veh FAM212B (11763350_a_at) / RFU PLEKHG5 (11743358_a_at) / Fold change /veh PLEKHG5 (11743358_a_at) / RFU ZSCAN30 (11745921_a_at) / Fold change /veh ZSCAN30 (11745921_a_at) / RFU CMKLR1 (11741424_a_at) / Fold change /veh CMKLR1 (11741424_a_at) / RFU LOC101060620 /// MAPK8IP1 (11723275_at) / Fold change /veh LOC101060620 /// MAPK8IP1 (11723275_at) / RFU SPTSSB (11747773_x_at) / Fold change /veh SPTSSB (11747773_x_at) / RFU PRSS12 (11739890_at) / Fold change /veh PRSS12 (11739890_at) / RFU BIN1 (11741810_x_at) / Fold change /veh BIN1 (11741810_x_at) / RFU WNT11 (11732464_a_at) / Fold change /veh WNT11 (11732464_a_at) / RFU C10orf10 (11716521_a_at) / Fold change /veh C10orf10 (11716521_a_at) / RFU C5orf56 (11738089_at) / Fold change /veh C5orf56 (11738089_at) / RFU CYB561 (11721691_x_at) / Fold change /veh CYB561 (11721691_x_at) / RFU ANKRD19P (11752326_a_at) / Fold change /veh ANKRD19P (11752326_a_at) / RFU OR2T12 /// OR2T33 /// OR2T8 (11738714_s_at) / Fold change /veh OR2T12 /// OR2T33 /// OR2T8 (11738714_s_at) / RFU VCAN (11748164_a_at) / Fold change /veh VCAN (11748164_a_at) / RFU JSRP1 (11732532_at) / Fold change /veh JSRP1 (11732532_at) / RFU KRTAP10-11 (11738290_x_at) / Fold change /veh KRTAP10-11 (11738290_x_at) / RFU MYO3A (11730013_a_at) / Fold change /veh MYO3A (11730013_a_at) / RFU EBF3 (11725865_a_at) / Fold change /veh EBF3 (11725865_a_at) / RFU CAMK2N1 (11719241_x_at) / Fold change /veh CAMK2N1 (11719241_x_at) / RFU C5orf56 (11738088_a_at) / Fold change /veh C5orf56 (11738088_a_at) / RFU OLFML3 (11715873_a_at) / Fold change /veh OLFML3 (11715873_a_at) / RFU LOC100653217 /// NTM (11731650_a_at) / Fold change /veh LOC100653217 /// NTM (11731650_a_at) / RFU MAPK11 (11762145_a_at) / Fold change /veh MAPK11 (11762145_a_at) / RFU FIZ1 (11724087_x_at) / Fold change /veh FIZ1 (11724087_x_at) / RFU OASL (11726364_x_at) / Fold change /veh OASL (11726364_x_at) / RFU SOX15 (11748057_x_at) / Fold change /veh SOX15 (11748057_x_at) / RFU CD79A (11719716_a_at) / Fold change /veh CD79A (11719716_a_at) / RFU HIST1H1D (11736915_at) / Fold change /veh HIST1H1D (11736915_at) / RFU CASKIN2 (11723855_a_at) / Fold change /veh CASKIN2 (11723855_a_at) / RFU LOC730098 (11760151_x_at) / Fold change /veh LOC730098 (11760151_x_at) / RFU OR4N2 (11742367_at) / Fold change /veh OR4N2 (11742367_at) / RFU PRRT2 (11749266_a_at) / Fold change /veh PRRT2 (11749266_a_at) / RFU SNX32 (11753110_a_at) / Fold change /veh SNX32 (11753110_a_at) / RFU CDHR5 (11726645_a_at) / Fold change /veh CDHR5 (11726645_a_at) / RFU RCAN1 (11760418_a_at) / Fold change /veh RCAN1 (11760418_a_at) / RFU FAM167A (11723789_a_at) / Fold change /veh FAM167A (11723789_a_at) / RFU FAM26E (11764081_at) / Fold change /veh FAM26E (11764081_at) / RFU ISYNA1 (11749810_s_at) / Fold change /veh ISYNA1 (11749810_s_at) / RFU ACY1 (11761880_at) / Fold change /veh ACY1 (11761880_at) / RFU 11764098_at / Fold change /veh 11764098_at / RFU SAMD14 (11745864_x_at) / Fold change /veh SAMD14 (11745864_x_at) / RFU NPB (11741838_a_at) / Fold change /veh NPB (11741838_a_at) / RFU TMPRSS6 (11731388_a_at) / Fold change /veh TMPRSS6 (11731388_a_at) / RFU KRTAP10-2 (11738614_at) / Fold change /veh KRTAP10-2 (11738614_at) / RFU ARHGAP8 /// PRR5-ARHGAP8 (11727945_x_at) / Fold change /veh ARHGAP8 /// PRR5-ARHGAP8 (11727945_x_at) / RFU KRTAP5-7 /// NADSYN1 (11734609_at) / Fold change /veh KRTAP5-7 /// NADSYN1 (11734609_at) / RFU RASL12 (11751679_a_at) / Fold change /veh RASL12 (11751679_a_at) / RFU CDKN2B (11736163_a_at) / Fold change /veh CDKN2B (11736163_a_at) / RFU PRF1 (11729649_at) / Fold change /veh PRF1 (11729649_at) / RFU, ZNF638 /// ZNF638-IT1 / Fold change vs veh, ZNF638 /// ZNF638-IT1 / RFU, PANK3 / Fold change vs veh, PANK3 / RFU, SH3YL1 / Fold change vs veh, SH3YL1 / RFU, ZEB2 / Fold change vs veh, ZEB2 / RFU, NRIP1 / Fold change vs veh, NRIP1 / RFU, PTTG1IP / Fold change vs veh, PTTG1IP / RFU, CAPN2 / Fold change vs veh, CAPN2 / RFU, MED14 / Fold change vs veh, MED14 / RFU, SNORA58 / Fold change vs veh, SNORA58 / RFU, C1orf63 / Fold change vs veh, C1orf63 / RFU, LRRFIP1 / Fold change vs veh, LRRFIP1 / RFU, NDUFAF7 / Fold change vs veh, NDUFAF7 / RFU, SLC12A2 / Fold change vs veh, SLC12A2 / RFU, IBTK / Fold change vs veh, IBTK / RFU, ESF1 / Fold change vs veh, ESF1 / Fold change vs veh, TMEM50B / RFU, TAOK1 / Fold change vs veh, TAOK1 / RFU, ACBD3 / Fold change vs veh, ACBD3 / RFU, TMA16 / Fold change vs veh, TMA16 / RFU, RWDD3 / Fold change vs veh, RWDD3 / RFU, BCAT1 / Fold change vs veh, BCAT1 / RFU, EDEM3 / Fold change vs veh, EDEM3 / RFU, TMEM33 / Fold change vs veh, TMEM33 / RFU, WDR75 / Fold change vs veh, WDR75 / RFU, AHCTF1 / Fold change vs veh, AHCTF1 / RFU, TFRC / Fold change vs veh, TFRC / RFU, ZDHHC17 / Fold change vs veh, ZDHHC17 / RFU, NOM1 / Fold change vs veh, NOM1 / RFU, ARL8B / Fold change vs veh, ARL8B / RFU, ZBTB11 / Fold change vs veh, ZBTB11 / RFU, TAMM41 / Fold change vs veh, TAMM41 / RFU, KIAA1704 /// LOC100996395 / Fold change vs veh, KIAA1704 /// LOC100996395 / RFU, ING1 / Fold change vs veh, ING1 / RFU, TRMT61B / Fold change vs veh, TRMT61B / RFU, FUBP3 / Fold change vs veh, FUBP3 / RFU, TP53 / Fold change vs veh, TP53 / RFU, TNKS2 / Fold change vs veh, TNKS2 / RFU, ZFP14 / Fold change vs veh, ZFP14 / RFU, ACTR2 / Fold change vs veh, ACTR2 / RFU, PPP3R1 / Fold change vs veh, PPP3R1 / RFU, PIK3R1 / Fold change vs veh, PIK3R1 / RFU, HNRNPA1 / Fold change vs veh, HNRNPA1 / RFU, RNF170 / Fold change vs veh, RNF170 / RFU, ZNF28 / Fold change vs veh, ZNF28 / RFU, RNGTT / Fold change vs veh, RNGTT / RFU, OGT / Fold change vs veh, OGT / RFU, BRD1 / Fold change vs veh, BRD1 / RFU, MARS / Fold change vs veh, MARS / RFU, ZNF655 / Fold change vs veh, ZNF655 / RFU, FAHD1 / Fold change vs veh, FAHD1 / RFU, BDP1 / Fold change vs veh, BDP1 / RFU, LRRCC1 / Fold change vs veh, LRRCC1 / RFU, ARID1A / Fold change vs veh, ARID1A / RFU, ZNF146 / Fold change vs veh, ZNF146 / RFU, ZNF330 / Fold change vs veh, ZNF330 / RFU, GPN3 / Fold change vs veh, GPN3 / RFU, C9orf123 / Fold change vs veh, C9orf123 / RFU, N4BP2L2 / Fold change vs veh, N4BP2L2 / RFU, ARFIP1 / Fold change vs veh, ARFIP1 / RFU, FAM179B / Fold change vs veh, FAM179B / RFU, BCL10 / Fold change vs veh, BCL10 / RFU, UHRF1BP1L / Fold change vs veh, UHRF1BP1L / RFU, BET1 / Fold change vs veh, BET1 / RFU, CNOT2 / Fold change vs veh, CNOT2 / RFU, ZNF268 / Fold change vs veh, ZNF268 / Fold change vs veh, ZNF507 / RFU, DGCR2 / Fold change vs veh, DGCR2 / RFU, WDSUB1 / Fold change vs veh, WDSUB1 / Fold change vs veh, HSP90B1 /// MIR3652 / RFU, ADSS / Fold change vs veh, ADSS / RFU, GK / Fold change vs veh, GK / RFU, ZNF148 / Fold change vs veh, ZNF148 / RFU, TAF9 / Fold change vs veh, TAF9 / RFU, SLC1A5 / Fold change vs veh, SLC1A5 / RFU, SLMO2 / Fold change vs veh, SLMO2 / RFU, ABCC4 / Fold change vs veh, ABCC4 / RFU, LOC101060439 /// RAP1B / Fold change vs veh, LOC101060439 /// RAP1B / RFU, RFX7 / Fold change vs veh, RFX7 / RFU, GTPBP10 / Fold change vs veh, GTPBP10 / RFU, CNEP1R1 / Fold change vs veh, CNEP1R1 / RFU, BIVM-ERCC5 /// ERCC5 / Fold change vs veh, BIVM-ERCC5 /// ERCC5 / RFU, ILF3 / Fold change vs veh, ILF3 / RFU 11762660_at / Fold change /veh 11762660_at / RFU VCAN (11757783_s_at) / Fold change /veh VCAN (11757783_s_at) / RFU DDX43 (11728927_at) / Fold change /veh DDX43 (11728927_at) / RFU KRT8 (11758188_x_at) / Fold change /veh KRT8 (11758188_x_at) / RFU NKD1 (11759106_at) / Fold change /veh NKD1 (11759106_at) / RFU SRD5A1 (11742802_a_at) / Fold change /veh SRD5A1 (11742802_a_at) / RFU TPSAB1 /// TPSB2 (11721975_s_at) / Fold change /veh TPSAB1 /// TPSB2 (11721975_s_at) / RFU GSTM3 (11746129_a_at) / Fold change /veh GSTM3 (11746129_a_at) / RFU IL23R (11737362_x_at) / Fold change /veh IL23R (11737362_x_at) / RFU TMEM51 (11727254_a_at) / Fold change /veh TMEM51 (11727254_a_at) / RFU PIWIL2 (11732686_x_at) / Fold change /veh PIWIL2 (11732686_x_at) / RFU ORM1 (11744905_x_at) / Fold change /veh ORM1 (11744905_x_at) / RFU CCDC152 (11743942_at) / Fold change /veh CCDC152 (11743942_at) / RFU ECM1 (11717891_a_at) / Fold change /veh ECM1 (11717891_a_at) / RFU IL23R (11748794_a_at) / Fold change /veh IL23R (11748794_a_at) / RFU TNFAIP8L3 (11732012_x_at) / Fold change /veh TNFAIP8L3 (11732012_x_at) / RFU MBOAT4 (11741988_at) / Fold change /veh MBOAT4 (11741988_at) / RFU 11764193_at / Fold change /veh 11764193_at / RFU TMEM53 (11763286_at) / Fold change /veh TMEM53 (11763286_at) / RFU MAGEB2 (11727129_at) / Fold change /veh MAGEB2 (11727129_at) / RFU TMEM200A (11744735_a_at) / Fold change /veh TMEM200A (11744735_a_at) / RFU CCDC152 (11751479_a_at) / Fold change /veh CCDC152 (11751479_a_at) / RFU FAM211A (11726209_a_at) / Fold change /veh FAM211A (11726209_a_at) / RFU RGS16 (11746705_a_at) / Fold change /veh RGS16 (11746705_a_at) / RFU VCAN (11755009_s_at) / Fold change /veh VCAN (11755009_s_at) / RFU RHOB (11743442_s_at) / Fold change /veh RHOB (11743442_s_at) / RFU RGS16 (11720943_a_at) / Fold change /veh RGS16 (11720943_a_at) / RFU RGS16 (11720944_at) / Fold change /veh RGS16 (11720944_at) / RFU, VPS4B / Fold change vs veh, VPS4B / RFU, CREB1 / Fold change vs veh, CREB1 / RFU, DNAJC13 / Fold change vs veh, DNAJC13 / RFU, GNAQ / Fold change vs veh, GNAQ / RFU, CDK5R1 / Fold change vs veh, CDK5R1 / RFU, ZRANB3 / Fold change vs veh, ZRANB3 / RFU, CUL4A / Fold change vs veh, CUL4A / RFU, CCNY / Fold change vs veh, CCNY / RFU, UFL1 / Fold change vs veh, UFL1 / RFU, COG3 / Fold change vs veh, COG3 / RFU, DIAPH2 / Fold change vs veh, DIAPH2 / RFU, SKA2 / Fold change vs veh, SKA2 / RFU, AFF3 / Fold change vs veh, AFF3 / RFU, LMF1 / Fold change vs veh, LMF1 / RFU, IPO11 / Fold change vs veh, IPO11 / RFU, DFFB / Fold change vs veh, DFFB / RFU, FOXP1 / Fold change vs veh, FOXP1 / RFU, CARD8 / Fold change vs veh, CARD8 / RFU, STRN3 / Fold change vs veh, STRN3 / RFU, ADK / Fold change vs veh, ADK / RFU, RASSF2 / Fold change vs veh, RASSF2 / RFU, WIPF1 / Fold change vs veh, WIPF1 / RFU, LARP1B / Fold change vs veh, LARP1B / RFU, RASA1 / Fold change vs veh, RASA1 / RFU, RB1 / Fold change vs veh, RB1 / RFU, PPFIA1 / Fold change vs veh, PPFIA1 / RFU, MAT2A / Fold change vs veh, MAT2A / RFU, CCT5 / Fold change vs veh, CCT5 / RFU, WDR92 / Fold change vs veh, WDR92 / RFU, CUX1 / Fold change vs veh, CUX1 / RFU, TTC7A / Fold change vs veh, TTC7A / RFU, TMEM135 / Fold change vs veh, TMEM135 / RFU, DEPTOR / Fold change vs veh, DEPTOR / RFU, CPM / Fold change vs veh, CPM / RFU, DNAJB6 / Fold change vs veh, DNAJB6 / RFU, CACNA2D3 / Fold change vs veh, CACNA2D3 / RFU, DTX4 / Fold change vs veh, DTX4 / RFU, TFCP2 / Fold change vs veh, TFCP2 / RFU, GMCL1 /// GMCL1P1 / Fold change vs veh, GMCL1 /// GMCL1P1 / RFU, AEBP2 / Fold change vs veh, AEBP2 / RFU, SNHG1 /// SNORD22 /// SNORD25 /// SNORD26 /// SNORD27 /// SNORD28 /// SNORD29 /// SNORD31 / Fold change vs veh, SNHG1 /// SNORD22 /// SNORD25 /// SNORD26 /// SNORD27 /// SNORD28 /// SNORD29 /// SNORD31 / Fold change (Aza/veh), C12orf56 (ProbeSet 11735607_a_at) / Fold change (ACY-1035/veh), C12orf56 (ProbeSet 11735607_a_at) / Fold change (Aza/veh), FGFR1OP (ProbeSet 11751329_s_at) / Fold change (ACY-1035/veh), FGFR1OP (ProbeSet 11751329_s_at) / Fold change (Aza/veh), VPS36 (ProbeSet 11739960_a_at) / Fold change (ACY-1035/veh), VPS36 (ProbeSet 11739960_a_at) / RFU SYPL1 (11715823_x_at) / Fold change /veh SYPL1 (11715823_x_at) / RFU IGFBP7 (11715501_s_at) / Fold change /veh IGFBP7 (11715501_s_at) / RFU REEP3 (11722064_at) / Fold change /veh REEP3 (11722064_at) / RFU IGLL1 (11728026_x_at) / Fold change /veh IGLL1 (11728026_x_at): dose or concentration left out as unconfirmed
# Settings: MV-4-11 cells, 48 hours
smiles,measurement,value
Nc1ccc(-c2cccs2)cc1NC(=O)c1ccc2c(c1)cc(C1CC1)n2CCN1CCOCC1 [ACY-1035],RFU C5orf56 (11738088_a_at),66.78 RFU
